Assay: Human HepG2 cell viability assay in 384 well format
Assay type: toxicity, cell-based
Set-up: dose 125 nL, time 70.5 hour; cytotoxicity at 70.5 h: concentration not given beside the values
Conditions: HepG2 cells, read-out: Inhibition
O=C(CO)N1CCC2(CC1)CC(=O)N(Cc1cc(F)cc(F)c1)C2 gave a cytotoxicity at 70.5 h of -1.76%. CN(C)C(=O)Cn1c2c(ccc1=O)CC(NCc1ccoc1)CC2 (stereo not drawn) gave a cytotoxicity at 70.5 h of 1.44%. In the case of COc1ccccc1CN1CCc2c(nc(-c3ccccn3)[nH]c2=O)C1, the cytotoxicity at 70.5 h is reported as 12.7%. With CC(C)c1ccc(N2CCc3onc(-c4ccc(F)c(F)c4)c3C2)nn1 the cytotoxicity at 70.5 h was -6.74%. In the case of Cc1noc(C)c1CN1CC[C@H]2C[C@H](c3ccncn3)O[C@@H]2C1, the cytotoxicity at 70.5 h is reported as -8.76%. With CCNC(=O)Cc1ccc(-c2cccc3c2CCNC3)cc1 the cytotoxicity at 70.5 h was -17.3%. Molecule Cc1cc(NC(=O)c2nc(N3CCCC3)ncc2Cl)nc(C(C)C)n1 has a cytotoxicity at 70.5 h of 2.57%. O=C(O)c1cc(S(=O)(=O)Nc2cccc(F)c2F)cc2c1OCCO2 gave a cytotoxicity at 70.5 h of -0.966%. Molecule Cc1cnn(CC(C)NCc2nc(-c3ccoc3)no2)c1 (stereo not drawn) has a cytotoxicity at 70.5 h of 38.1%. For CCn1nc(C)c2nc(C(C)C)nc(N3CCC(O)CC3)c21, the cytotoxicity at 70.5 h was -15.2%. Molecule CCOC(=O)CSc1nnc([C@@H](N)C(C)CC)o1 (stereo partly drawn) has a cytotoxicity at 70.5 h of -9.94%. Molecule CCc1cccc(OC2CN(C(=O)[C@@H](N)CCSC)C2)c1 has a cytotoxicity at 70.5 h of -1.91%. Work on Cc1ccccc1OCCC(=O)N1CCc2nc(C)n(C)c(=O)c2CC1 yielded a cytotoxicity at 70.5 h of -8.53%. Cc1nnc([C@]23COC[C@H]2CN(Cc2cccs2)C3)o1 gave a cytotoxicity at 70.5 h of 27.6%. Work on CC(C)c1nsc(N2CCS(=O)(=O)CC2)n1 yielded a cytotoxicity at 70.5 h of -22.3%. Cc1ccccc1-n1nccc1NC(=O)CCOC(C)C gave a cytotoxicity at 70.5 h of 11.4%. Work on Cc1ccc(NC2CCN(C(=O)COC3CCCC3)CC2)nn1 yielded a cytotoxicity at 70.5 h of -8.07%. O=C(c1ccco1)N1C(CO)[C@]2(O)CC[C@H]1CC2 (stereo partly drawn) gave a cytotoxicity at 70.5 h of -3.21%. With c1cnc2c(c1)cc([C@H]1CCCO1)n2CCN1CCCC1 the cytotoxicity at 70.5 h was -1.04%. For CC(C)n1[nH]c(=O)c2c1NC(=O)CC2c1cccnc1 (stereo not drawn), the cytotoxicity at 70.5 h was 9.01%. CN1C[C@@H]2COC[C@]2(C(=O)NCc2cccs2)C1 showed a cytotoxicity at 70.5 h of 13.4%. For CC1c2ncc(CNC(=O)C3CC3)n2CCN1Cc1ccsc1 (stereo not drawn), the cytotoxicity at 70.5 h was -1.59%. In the case of NC(=O)C1CN(c2ncnc3c2Cc2ccccc2OC3)CCO1 (stereo not drawn), the cytotoxicity at 70.5 h is reported as -3.79%. Work on Cc1nnc(NC(=O)NCc2ccoc2)s1 yielded a cytotoxicity at 70.5 h of -2.74%. Work on CC(C)Cc1ncc2c(n1)CN(c1nccc(N(C)C)n1)C2 yielded a cytotoxicity at 70.5 h of -8.35%. With Clc1nc2ccccn2c1CNCC1CN(C2CC2)CCO1 (stereo not drawn) the cytotoxicity at 70.5 h was 4.07%. COCC(=O)NCc1cc(=O)n2c(n1)CN(Cc1ccco1)CCC2 gave a cytotoxicity at 70.5 h of 2.27%. In the case of c1cc2c(cc1CN(Cc1nc(C3CC3)no1)C1CCCC1)OCO2, the cytotoxicity at 70.5 h is reported as 6.65%. Molecule CC(NCC(=O)N1CCc2sccc2C1)c1ccccc1F (stereo not drawn) has a cytotoxicity at 70.5 h of -15.8%. CC(C)CNC(=O)c1cn(-c2ccccn2)c(=O)c2ccccc12 showed a cytotoxicity at 70.5 h of -7.97%. For CN(Cc1cn2c(n1)CN(Cc1nccs1)CC2)Cc1ccco1, the cytotoxicity at 70.5 h was -7.68%. Molecule Cc1ccc(N2CCCN(C(=O)C(C)OCC3CC3)CC2)nn1 (stereo not drawn) has a cytotoxicity at 70.5 h of -11.3%. O=S(=O)(c1ccc(Cl)cc1)N1CCN(CCCn2ccnc2)CC1 showed a cytotoxicity at 70.5 h of -1.12%. Molecule CSc1cccc(NC(C)C(=O)Nc2nccs2)c1 (stereo not drawn) has a cytotoxicity at 70.5 h of 6.07%. With CC(C)C(=O)N1CCC(Cc2nccnc2Nc2ccccn2)CC1 the cytotoxicity at 70.5 h was -5.25%. For Cn1nnc2c1CCN(C(=O)C1CC1)C2COCCN1CCCC1 (stereo not drawn), the cytotoxicity at 70.5 h was -3.87%. For CSCC(=O)N1CCCC(n2ccnc2C(C)C)C1 (stereo not drawn), the cytotoxicity at 70.5 h was -7.04%. Molecule COCC(NC(=O)c1ccc[nH]1)c1cccc(C(F)(F)F)c1 (stereo not drawn) has a cytotoxicity at 70.5 h of 17.9%. For Cc1ccc(CC(=O)N2CCCC(c3nc(C)cs3)C2)cn1 (stereo not drawn), the cytotoxicity at 70.5 h was -17.4%. CC(=O)N[C@@H]1CN(C(=O)CC2CC2)C[C@H]1O gave a cytotoxicity at 70.5 h of -4.46%. Molecule CC(Cn1cccn1)NC(=O)Nc1nccs1 (stereo not drawn) has a cytotoxicity at 70.5 h of -21.9%. In the case of O=C1NCCN1C1CCN(Cc2coc(-c3ccccc3)n2)CC1, the cytotoxicity at 70.5 h is reported as 20.6%. CCCn1cc(NC(=O)c2ccc(NC(=O)NC3CC3)cc2)ccc1=O gave a cytotoxicity at 70.5 h of -10.8%. CCCOCCNc1nc2c(s1)c(C)nn2C showed a cytotoxicity at 70.5 h of 24.8%. Work on O=C(CCn1ccc(=O)[nH]c1=O)N1CCC(OCc2cccnc2)CC1 yielded a cytotoxicity at 70.5 h of 27.2%. With Clc1ccc2cccnc2c1CN1CCCC(Cn2cncn2)C1 (stereo not drawn) the cytotoxicity at 70.5 h was -14.3%. With Cc1ccccc1C(=O)Nc1ccc([C@H]2OCC(=O)N(C)[C@@H]2CO)cc1 the cytotoxicity at 70.5 h was -0.197%. With CC(C)[C@H]1CN(CC2CCC2)C[C@@H]1NC(=O)c1ccc(=O)[nH]c1 the cytotoxicity at 70.5 h was 3.69%. Work on OCCc1ccccc1-n1ccnc1-c1cn(C2CCNCC2)nn1 yielded a cytotoxicity at 70.5 h of 27.2%. Molecule CN(Cc1noc(C2CC2)n1)C1CCN(CC(=O)N2CCOCC2)C1 (stereo not drawn) has a cytotoxicity at 70.5 h of -3.02%. Molecule CC(C(=O)N1CCCN(Cc2ccc(C#N)cc2)CC1)n1cncn1 (stereo not drawn) has a cytotoxicity at 70.5 h of -1.82%. In the case of c1cc(CN2CCC(c3nnc4n3CCCCC4)CC2)c2c(c1)OCO2, the cytotoxicity at 70.5 h is reported as -5.9%. NC(=O)c1cccc(CS(=O)(=O)CC(O)Cn2cccn2)c1 (stereo not drawn) showed a cytotoxicity at 70.5 h of -4.59%. With CC(C)CN1CCc2[nH]cnc2C12CCN(C(=O)c1ccccn1)CC2 the cytotoxicity at 70.5 h was -3.63%. Molecule CCN(C)C(=O)c1cnc(-c2noc3cc(N4CCCCC4)ccc23)s1 has a cytotoxicity at 70.5 h of 30.7%. For COc1cccc(N2Cc3nc(=O)n(C(C)C)n3C2=O)c1, the cytotoxicity at 70.5 h was -13.3%. Molecule CCOc1ccccc1Oc1ccc(CN)cn1 has a cytotoxicity at 70.5 h of -7.48%. With CN(C)CCNC(=O)c1ccc(OC2CCN(C3CCC3)CC2)c(Cl)c1 the cytotoxicity at 70.5 h was -5.59%.

— ChEMBL document CHEMBL3507680, “University of Dundee, Gates Library screen for HepG2 cell viability”
